Measurements: publication PMC7707092, “Discovery and characterization of ORM‐11372, a novel inhibitor of the sodium‐calcium exchanger with positive inotropic activity” (British Journal of Pharmacology, 2020)
Several values for one entry are separate records, joined by “and”; a condition that tells them apart may be missing. Equal entries are not always repeated.

Legend:
[1] = system: anaesthetized rats with myocardial infarctions; assay: Haemodynamics in anaesthetized MI and sham rats; assay type: in vivo; conditions: for free plasma concentration: 417 μg·kg^−1·min^−1; for maximal positive inotropic effect (LV + dP/dt max): i.v. infusion 417 μg·kg^−1·min^−1
From the text: Male Sprague–Dawley rats (Harlan, Netherlands B.V.) were housed in polycarbonate cages (Makrolon IV with stainless steel wire mesh lids). A maximum of five rats were housed per cage with aspen chip bedding (Tapvei Ky, Kaavi, Finland). Rats had free access to water (twice filtered, Espoon Vesi) and a rodent diet (SDS RM1 (P) SQC pelleted diet, Special Diet Services Ltd, Witham, England). The acclimation period before experiments was at least 5 days. In the MI model, rats (7–8 weeks, 200–250 g) were randomized into either the MI or sham group. In this weight range, a rat is considered a young adult, when its evolution phase is characterized by slow growth and its surgical mortality is lower than that of older animals. Male rats were used to minimize the variability of the cardiac response to several stimuli (Zornoff, Paiva, Minicucci, & Spadaro, 2009).
Rats were anaesthetized with a combination of ketamine (Ketalar® 50 mg·kg−1, i.p.) and medetomidine (Domitor 250 μg·kg^−1, i.p.), intubated, and artificially ventilated with air (Ugo Basile 7025). An MI was induced by the occlusion of the left coronary artery under aseptic conditions (Levijoki, Pollesello, Kaheinen, & Haikala, 2001; Selye, Bajusz, Grasso, & Mendell, 1960). The left coronary artery was ligated at a distance of about 2–3 mm from the origin of the aorta with a silk suture, and the heart was repositioned into the chest. After ligation, the wound was closed carefully. The muscle layer was closed with soluble stitches and skin layers with insoluble stitches, followed by a partial reversal of anaesthesia via the […] administration of atipamezole (Antisedan® 0.3–1 mg·kg^−1, i.m.). The trachea tube was removed, and the trachea and underlying muscle and skin layers were closed immediately. To prevent dehydration, rats were subcutaneously administered with 5 ml of 0.9% NaCl. After surgery, rats were given analgesia with buprenorphine for at least 2 days (0.05 mg·kg^−1, s.c. twice a day). For sham‐operated rats, the same procedure was performed, without ligation. Rats were analysed for 7 days after the MI, for signs of severe acute heart failure such as oedema or breathing difficulties.
All animals were given multiple ascending infusion doses of ORM‐11372; blinding was not possible. Systemic BP (SP) and left ventricular pressure (LVP) values were measured with pressure transducers (SP for femoral artery: Isotec, Hugo Sachs Elektronic, Germany; a miniature pressure transducer Mikro‐Tip transducer SPR‐249, Millar Instruments was inserted into the left ventricle via the right carotid artery). The signal was amplified (DC‐bridge amplifier type 660, Hugo Sachs Elektronik, Germany), digitized (I/O connector block type SCB‐68, National Instruments, USA), recorded, and analysed (IHME 1.0.9, Fision Ltd, Finland). Left ventricular inotropic effect (LV + dP/dt max), relaxation (LV − dP/dt min), and HR values were analysed from LVP signals.
Haemodynamics were assessed 7 days after the MI (n = 6) or sham operation (n = 6) as follows. Rats were anaesthetized with isoflurane (2.25–2.5%, Baxter) in carbogen (95% O2 and 5% CO2) and nitrous oxide (1:1), using a small rodent ventilator (Ugo Basile 7025, ~10 ml·kg^−1, 60 strokes·min^−1). The rats were infused with 0.9% NaCl in the […] at the stabilization and baseline levels. ORM‐11372 was administered into MI (n = 6) and sham (n = 6) rats in ascending infusion doses of 1.7, 17, 167, and 417 μg·kg^−1·min^−1. Infusions were administered into the jugular vein of MI rats at the infusion rate of 5 ml·kg^−1·h^−1 (Terumo TE‐311, Belgium). Doses were selected based on a pilot study with healthy rats (Figure S20). The total number of animals in the study was 12 + 2, due to the replacement of two MI rats. […]

[2] = target: T1, human NCX 1.1 (Homo sapiens, UniProt P32418); assay: Fluorescence screening assay for hNCX 1.1 inhibition (reverse mode, Sf9 cells); assay type: cell-based; conditions: for IC50: Sf9 cells expressing human NCX1.1, reverse mode, fluorescence, n=3 assays
T1 construct: expressed in transfected cells
Experimental: Spodoptera frugiperda (Sf9; RRID:CVCL_0549) cells are widely used for the transient and stable expression of recombinant proteins. Here, Sf9 cells were stably transfected with human NCX 1.1 and maintained in spinner flasks with insect cell culture medium (TNM‐FH), supplemented with 10% FBS, antibiotic–antimycotic solution, and 50 μg·ml^−1 of blasticidin at 28°C in a non‐humidified, CO2‐free atmosphere. The Sf9 cell suspension was subcultured three times a week.
NCX reverse mode activity was stimulated via a 50% dilution of the extracellular Na^+ level using the internal pipettor of FLEXstation, a fluorescence imaging plate reader (Molecular Devices, USA), while simultaneously monitoring intracellular calcium levels. After dilution, the concentration of other ions remained the same, but Na^+ concentration was diluted to the half of original concentration of 172 to 86 mM. For Sf9 insect cells, normal extracellular Na^+ ion concentration is 172 mM. Typically, 50 μl of a solution containing 150,000–200,000 Sf9–NCX cells was loaded onto each well of a 96‐well plate. Cells were preincubated with the intracellular calcium dye Fluo‐4 and Fluo‐6, and the concentrations of the test compound (three replicates) were determined for about 1 h at room temperature before experimentation. The extracellular solution contained (in mM) 172 NaCl, 10 HEPES, 1 CaCl2, 1.2 MgCl2, 0.33 NaH2PO4, 5 glucose, and 5 probenecid. The pH was adjusted to 7.4 with NaOH. The extracellular Na^+ was diluted by the addition of a Na^+‐free extracellular solution (containing in mM: 147 N‐methyl‐D‐glucamine (NMDG), 10 HEPES, 1 CaCl2, 1.2 MgCl2, 0.33 NaH2PO4, and 5 glucose with the pH adjusted by HCl to 7.4)‐induced robust and reproducible elevation of intracellular calcium. The osmolarity of both solutions was adjusted to 340–355 mOsm in order to match the Sf9 cell media osmolarity. In each plate, the IC50 determination for each test compound was based on relative fluorescence changes in comparison with control and 5‐mM nickel acetate‐induced NCX inhibition.

Row | IC50 [2] | Structure (SMILES) | improvement of relaxation ([1]; MI group, lowest infusion dose 1.7 μg·kg^−1·min^−1) [%] | systemic arterial BP ([1]; MI or sham groups) | free plasma concentration ([1]; MI rats) [nM] | maximal positive inotropic effect (LV + dP/dt max) ([1]; MI rats) [%] | free plasma concentration ([1]; sham rats) [nM] | maximal positive inotropic effect (LV + dP/dt max) ([1]; sham rats) [%] | potency as NCX inhibitor relative to SEA0400 [2]
1 | 0.376 µM | CCOc1ccc(Oc2ccc(OCc3cc(F)ccc3F)cc2)c(N)c1 [SEA0400, reference compound] | – | – | – | – | – | – | –
2 | 0.197 µM | O=C(CN1CCC(O)CC1)Nc1ccc(Oc2ccc3c(c2)CCC(c2ccccc2)O3)nc1 (stereo not shown) [ORM-10962] | – | – | – | – | – | – | –

Row | Structure (SMILES) | IC50 [2] | improvement of relaxation ([1]; MI group, lowest infusion dose 1.7 μg·kg^−1·min^−1) [%] | systemic arterial BP ([1]; MI or sham groups) | free plasma concentration ([1]; MI rats) [nM] | maximal positive inotropic effect (LV + dP/dt max) ([1]; MI rats) [%] | free plasma concentration ([1]; sham rats) [nM] | maximal positive inotropic effect (LV + dP/dt max) ([1]; sham rats) [%] | potency as NCX inhibitor relative to SEA0400 [2]
3 | Nc1cccc(-c2ccc(CNc3ccc(F)cc3)o2)c1 [ORM‐11372] | 0.0062 µM and 0.006 µM | 24 ± 2 | no effect | 6.7 ± 2.5 | 18 ± 6 | 4.9 ± 0.4 | 31 ± 6 | more than 10 times
